For two compounds, MIC and IC50 results are on record in patent US11713318B2, “Short conjugated oligoelectrolytes and uses thereof” (The Regents Of The University Of California, priority 2018, dated 2023).

Experiment [1] concerns A. baumannii CDC0290 (MDR). Put plainly: MIC against resistant strains, Tables 5a-5d. The format is cell-based. Particulars: Acinetobacter baumannii, n = 3. How it is done:
(§1) Compounds described herein were evaluated for growth inhibition against a variety of bacterial species, including strains that have developed resistance to common antibacterial treatments, according to the procedure described herein, or by analogous procedures known to those skilled in the art. Resistant bacterial strains used for compound testing include methicillin-resistant S. aureus (MRSA), vancomycin resistant Enterococci (VRE) and various multi-drug resistant (MDR) strains commonly associated with hospital-acquired (nosocomial) infections, including, but not limited to A. baumannii, K. pnuemoniae, and E. cloacae.

For experiment [2], the system named is P. aeruginosa 1674623 (MDR). Description: MIC against resistant strains, Tables 5a-5d. The conditions noted are these: Pseudomonas aeruginosa, n = 3. The format is cell-based. The protocol:
as §1

For experiment [3], the system named is K. pneumoniae CDC0010 (MDR). Put plainly: MIC against resistant strains, Tables 5a-5d. The format is cell-based. The conditions noted are these: Klebsiella pneumoniae, n = 3. The protocol: as §1
The test system of experiment [4] is K. pneumoniae ATCC BAA-2473 (MDR). Description: MIC against resistant strains, Tables 5a-5d. Particulars: Klebsiella pneumoniae, ATCCBAA2473, n = 3. The format is cell-based. The protocol: as §1
Experiment [5] deals with E. coli ATCC25922 (WT). Put plainly: MIC against resistant strains, Tables 5a-5d. The format is cell-based. Particulars: Escherichia coli, n = 3. How it is done: as §1
In experiment [6] the test system is A. baumannii 1674627 (MDR). Description: MIC against resistant strains, Tables 5a-5d. The format is cell-based. The conditions noted are these: Acinetobacter baumannii, n = 3. How it is done:
as §1

Experiment [7] concerns P. aeruginosa CDC0248 (MDR). Put plainly: MIC against resistant strains, Tables 5a-5d. The format is cell-based. Particulars: Pseudomonas aeruginosa, n = 3. How it is done: as §1
Experiment [8] deals with E. faecium 1674620 (VRE). Description: MIC against resistant strains, Tables 5a-5d. Particulars: Enterococcus faecium, n = 3. The format is cell-based. The protocol: as §1
For experiment [9], the system named is E. cloacae 1744299 (ESBL). Put plainly: MIC against resistant strains, Tables 5a-5d. The format is cell-based. Particulars: Enterobacter cloacae, n = 3. How it is done:
as §1

Experiment [10] deals with S. aureus ATCC 33591 (MRSA). Put plainly: MIC against resistant strains, Tables 5a-5d. The format is cell-based. Particulars: Staphylococcus aureus, n = 3. The protocol: as §1
Experiment [11] concerns S. aureus ATCC BAA-1717 (MRSA). Description: MIC against resistant strains, Tables 5a-5d. The format is cell-based. The conditions noted are these: Staphylococcus aureus, n = 3. How it is done: as §1
The test system of experiment [12] is Hep G2 cells. Description: Cytotoxicity tested by Eurofins Pharma Discovery Services. The format is cell-based. Particulars: Homo sapiens, HepG2; Hep G2; data provided by Eurofins; read-out: IC50.
Experiment [13] has as its system Hep G2 (ATCC HB-8065) cells. Description: Cytotoxicity, MTT assay. The format is cell-based. The conditions noted are these: Homo sapiens, HepG2, 24 h, Hep G2; MTT, 24 hours incubation; read-out: IC50. The method in brief:
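Cells seeded at 5000/well (NIH 3T3) or 10000/well (Hep G2, J774, RAW264.7) in DMEM+10% FBS, incubated overnight, then exposed 24 h to 2-fold serial dilutions (9 concentrations, six replicates each). MTT added for 4 h, formazan dissolved in DMSO, A570 read. Viability expressed as blank-corrected absorbance relative to medium-only control.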

Experiment [14] concerns primary human hepatocytes. Put plainly: Cytotoxicity tested by Eurofins Pharma Discovery Services. The format is cell-based. The conditions noted are these: Hepatocyte, data provided by Eurofins, read-out: IC50.
Experiment [15] relates to S. epidermidis (ATCC 14990). Description: MIC broth microdilution method, Table 3. The conditions noted are these: Staphylococcus epidermidis, ATCC14990.
Experiment [16] relates to K. aerogenes (ATCC 13048). Put plainly: MIC broth microdilution method, Table 3. The conditions noted are these: Klebsiella aerogenes, ATCC13048.

Regarding `C[N+](C)(C)CCCCOc1cc(/C=C/c2ccc(/C=C/c3cc(OCCCC[N+](C)(C)C)cc(OCCCC[N+](C)(C)C)c3)cc2)cc(OCCCC[N+](C)(C)C)c1.[I-].[I-].[I-].[I-]` [Formula F], the minimal inhibitory concentration (MIC) in [1] is 64 µg/mL; in experiment [2], more than 64 µg/mL; in experiment [3], 64 µg/mL; in [4] it was 32 µg/mL; in [5], 8 µg/mL; in [6], 64 µg/mL. Moreover, the MIC in experiment [7] was more than 64 µg/mL; in [8], 8 µg/mL; in [9], 8 µg/mL; in experiment [10], 2 µg/mL; in experiment [11], 2 µg/mL; in [15], 2 µg/mL. In experiment [16], this compound showed an MIC of 32 µg/mL. For the same compound, the IC50 in experiment [12] is more than 324 µg/mL; in [13] it was more than 1020 µg/mL; in experiment [14], more than 324 µg/mL.
As to `CCCCCC[N+](C)(C)CCCCCCOc1cc(/C=C/c2cc(OCCCCCC[N+](C)(C)CCCCCC)cc(OCCCCCC[N+](C)(C)CCCCCC)c2)cc(OCCCCCC[N+](C)(C)CCCCCC)c1` [Formula E], the MIC in experiment [1] turned out to be 4 µg/mL; in [2] it was 8 µg/mL; in experiment [3], 4 µg/mL; in [4] it was 2 µg/mL; in experiment [5], 1 µg/mL; in experiment [6], 4 µg/mL. Further, the MIC in experiment [7] amounted to 8 µg/mL; in experiment [8], 0.25 µg/mL; in [9] it was 2 µg/mL; in experiment [10] it was 0.5 µg/mL; in experiment [11] it was 0.5 µg/mL; in [15], 4 µg/mL. In experiment [16], this compound registered an MIC of 8 µg/mL. The results for the IC50 in [12], in experiment [13] and in experiment [14] were 5.6 µg/mL, 7.3 µg/mL and 13.2 µg/mL, respectively.
